Test results from article PMC2669215, “SVOP Is a Nucleotide Binding Protein” (PLoS ONE, 2009).
pIC50: −log10 of the molar value.

Tests used:
SVOP-FLAG [1] = biological target: T1, SVOP-FLAG (Rattus norvegicus, UniProt Q9Z2I7); test: competition with 8-azido-ATP[γ] biotin photoaffinity labeling, western blot; assay type: binding; details: read-out: half maximum inhibition concentration
T1 construct: full length (548 residues), C-terminal FLAG tag (DYKDDDK) kept; expressed in HEK293, purified on anti-FLAG M2 gel
T1 sequence (Q9Z2I7 1-548): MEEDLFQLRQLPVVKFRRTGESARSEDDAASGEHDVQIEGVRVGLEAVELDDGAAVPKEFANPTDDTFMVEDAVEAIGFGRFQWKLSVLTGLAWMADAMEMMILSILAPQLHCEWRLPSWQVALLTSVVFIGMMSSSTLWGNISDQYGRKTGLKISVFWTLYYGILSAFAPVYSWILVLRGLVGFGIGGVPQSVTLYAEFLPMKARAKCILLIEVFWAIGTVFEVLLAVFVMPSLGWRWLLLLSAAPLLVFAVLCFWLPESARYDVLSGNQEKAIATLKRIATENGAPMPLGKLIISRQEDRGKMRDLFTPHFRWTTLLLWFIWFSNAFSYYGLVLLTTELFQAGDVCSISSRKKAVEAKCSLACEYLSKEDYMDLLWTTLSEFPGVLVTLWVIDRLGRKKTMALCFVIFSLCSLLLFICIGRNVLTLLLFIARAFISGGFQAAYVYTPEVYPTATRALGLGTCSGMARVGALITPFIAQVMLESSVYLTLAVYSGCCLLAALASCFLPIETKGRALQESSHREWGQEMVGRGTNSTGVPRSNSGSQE

SVOP-FLAG [2] = biological target: T1, SVOP-FLAG; test: as above; assay type: binding; details: 100 µM 8-azido-ATP[γ] biotin, pH 7.4, on ice

| SMILES | pIC50 (SVOP-FLAG [1]) | decrease of labeling at 1 mM (SVOP-FLAG [2]) |
| --- | --- | --- |
| Nc1ncnc2c1ncn2[C@@H]1O[C@H](COP(=O)(O)OP(=O)(O)OP(=O)(O)O)[C@@H](O)[C@H]1O [ATP] | ~3.12 | – |
| Nc1nc2c(ncn2[C@@H]2O[C@H](COP(=O)(O)OP(=O)(O)OP(=O)(O)O)[C@@H](O)[C@H]2O)c(=O)[nH]1 [GTP] | – | ATP, GTP and NAD displayed the strongest inhibition |
| Nc1ccn([C@@H]2O[C@H](COP(=O)(O)OP(=O)(O)OP(=O)(O)O)[C@@H](O)[C@H]2O)c(=O)n1 [CTP] | – | TTP and CTP produced the least inhibition |
| NC(=O)c1ccc[n+]([C@@H]2O[C@H](COP(=O)(O)OP(=O)(O)OC[C@H]3O[C@@H](n4cnc5c(N)ncnc54)[C@H](O)[C@@H]3O)[C@@H](O)[C@H]2O)c1 [NAD] | ~3.60 | – |
| Cc1cn([C@H]2C[C@H](O)[C@@H](COP(=O)(O)OP(=O)(O)OP(=O)(O)O)O2)c(=O)[nH]c1=O [TTP] | – | TTP and CTP produced the least inhibition |
